Numbers after ± are expanded uncertainties.
What was measured:
[1] = molar enthalpy of vaporization or sublimation; conditions: 298.15 K; Crystal; Calver Calorimeter- drop method
[2] = Crystal; for Normal melting temperature: DTA
[3] = Molar enthalpy of transition or fusion; conditions: Crystal; DSC

O=c1[nH]sc2ccccc12 [1,2-benzisothiazol-3(2H)-one]
molar enthalpy [1]: 26.9 ± 1.2 kcal/mol | Normal melting temperature [2]: 155.64 ± 0.39 °C | Molar enthalpy of transition or fusion [3]: 4.99 ± 0.117 kcal/mol

O=C1CSc2ccccc2N1 [2H-1,4-benzothiazin-3(4H)-one]
molar enthalpy of sublimation ([2]; 298.15 K, Calver Calorimeter- drop method): 28.2 ± 1.82 kcal/mol | Normal melting temperature [2]: 178.24 ± 0.39 °C | Molar enthalpy of transition or fusion [3]: 6.04 ± 0.143 kcal/mol
